Test results reported in paper PMC6920357, “CETSA-based target engagement of taxanes as biomarkers for efficacy and resistance” (Scientific Reports, 2019).
Where two headings read alike, the source gives them in different places.

System: T1, β-tubulin
T1 construct: gene TUBB; endogenous untagged beta-tubulin (isotypes not resolved) in microtubules with alpha-tubulin, intact human cancer cells
Assay: isothermal dose response CETSA, AlphaLISA
Format: cell-based

## CCC1=C[C@@H]2CN(C1)Cc1c([nH]c3ccccc13)[C@@](C(=O)OC)(c1cc3c(cc1OC)N(C)[C@H]1[C@@](O)(C(=O)OC)[C@H](OC(C)=O)[C@]4(CC)C=CCN5CC[C@]31[C@@H]54)C2 [vinorelbine]
Intact PC346C prostate cancer cells, heated 63 °C, vinca site, read-out: EC50
  EC50: 2020 ± 310 nM

## CC(=O)O[C@H]1C(=O)[C@@]2(C)[C@H]([C@H](OC(=O)c3ccccc3)[C@]3(O)C[C@H](OC(=O)[C@H](O)[C@@H](NC(=O)c4ccccc4)c4ccccc4)C(C)=C1C3(C)C)[C@]1(OC(C)=O)CO[C@@H]1C[C@@H]2O [paclitaxel]
  EC50: 1550 ± 300 nM

## CC(=O)O[C@@]12CO[C@@H]1C[C@H](O)[C@@]1(C)C(=O)[C@H](O)C3=C(C)[C@@H](OC(=O)[C@H](O)[C@@H](NC(=O)OC(C)(C)C)c4ccccc4)C[C@@](O)([C@@H](OC(=O)c4ccccc4)[C@H]21)C3(C)C [docetaxel]
Intact K562-P cells, 1 h 45 min at 37 °C, heated 63 °C 3 min, no tariquidar, taxane site, read-out: EC50
  EC50: 300 ± 80 nM
